Reference: ChEMBL document CHEMBL1155739, “New indole alkaloids from the bark of Nauclea orientalis” (J Nat Prod, 2001)
Converted amounts (≈) assume the structure as drawn. The source made the active and inactive calls. The rule behind the calls is not given here.

Tests used:
Candida albicans = assay: (§1) Inhibition of Candida albicans secreted aspartic protease
[1] = as §1

With `C=C[C@@H]1C2=C[C@H]3c4[nH]c5ccccc5c4CCN3C(=O)C2=C(O)O[C@H]1O[C@@H]1O[C@H](CO)[C@@H](O)[C@H](O)[C@H]1O` as the compound, how does the Activity (Candida albicans) read?
Its Activity is “inactive”.

For `CC(C)CC(=O)N[C@H](C(=O)N[C@H](C(=O)N[C@@H](CC(C)C)[C@@H](O)CC(=O)N[C@@H](C)C(=O)N[C@@H](CC(C)C)[C@@H](O)CC(=O)O)C(C)C)C(C)C` [PEPSTATIN], which IC50 [1] is on record?
The IC50 was 6 ng/mL (≈ 8.75 nM).
